# Source: patent publication US20170007615A1, “Antibacterial Compounds” (priority 2014, published 2017)
# Like-named read-outs stand apart in the source and are kept apart here. Marks after values point to notes of the source that are not given here. Positions of bridges follow the written chain, without caps; N, C: chain ends. Non-standard residues stand in square brackets, D forms with d. Residues, ends and D or L forms follow the SMILES beside them. Dab = NCC[C@H](N)C(=O)O
# Legend:
# [1] = test system: A. baumannii (ATCC 19606)
# [2] = test system: P. aeruginosa (ATCC 27853)
# E. coli (NDM-1; CTX-M15) = experiment: Septicaemia infection model, survival; details: two doses, PMBN 50 mg/kg SC alone
# [3] = test system: F. philomiragia (ATCC 25015); details: Table 9
# E. coli (ATCC 25922) [4] = test system: E. coli (ATCC 25922)
# E. cloaceae (ATCC 13047) [5] = test system: E. cloaceae (ATCC 13047)
# E. cloaceae (ATCC 13047) [6] = experiment: microbe, parasite or virus in culture; details: Enterobacter cloacae, ATCC13047, read-out: MIC Compound alone
# [7] = test system: E. coli drug resistant clinical isolates; experiment: Antibacterial activity (MIC) against drug resistant clinical isolates, alone and with PMBN; format: cell-based; details: for MIC: Escherichia coli, read-out: MIC Compound alone
# [8] = test system: A. baumannii drug resistant clinical isolates; experiment: as above; format: cell-based; details: for MIC: Acinetobacter baumannii, read-out: MIC Compound alone
# [9] = test system: E. cloaceae drug resistant clinical isolates; experiment: as above; format: cell-based; details: for MIC: read-out: MIC Compound alone
# [10] = test system: P. aeruginosa (MMX 1497) colistin-resistant strain; experiment: Antibacterial activity (MIC) against colistin-resistant strains, alone and with colistin; format: cell-based
# [11] = test system: P. aeruginosa (ATCC 27853); experiment: microbe, parasite or virus in culture; details: Pseudomonas aeruginosa, ATCC27853, read-out: MIC Compound alone
# [12] = test system: E. coli colistin-resistant strains; experiment: microbe, parasite or virus in culture; format: cell-based; details: for MIC: Escherichia coli
# [13] = test system: A. baumannii (ATCC 19606); experiment: microbe, parasite or virus in culture; details: Acinetobacter baumannii, ATCC19606, read-out: MIC Compound alone
# B. cepacia (ATCC 25416) = experiment: Antibacterial activity (MIC), alone and with colistin; format: cell-based, Burkholderia cepacia
# E. coli (ATCC 25922) [14] = experiment: microbe, parasite or virus in culture; details: Escherichia coli
# [15] = test system: F. philomiragia (ATCC 25015); experiment: microbe, parasite or virus in culture; details: Francisella philomiragia, ATCC25015, read-out: MIC Compound alone
# [16] = test system: K. pneumonia colistin-resistant strains; experiment: microbe, parasite or virus in culture; format: cell-based; details: for MIC: Klebsiella pneumoniae
# [17] = test system: A. baumannii colistin-resistant strains; experiment: microbe, parasite or virus in culture; format: cell-based; details: for MIC: Acinetobacter baumannii
# [18] = test system: P. aeruginosa drug resistant clinical isolates; experiment: Antibacterial activity (MIC) against drug resistant clinical isolates, alone and with PMBN; format: cell-based; details: for MIC: Pseudomonas aeruginosa, read-out: MIC Compound alone
smiles,measurement,setting,value
"CC(C)C[C@@H]1NC(=O)[C@@H](Cc2ccccc2)NC(=O)[C@H](CCN)NC(=O)[C@@H](NC(=O)[C@H](CCN)NC(=O)[C@@H](N)[C@@H](C)O)CCNC(=O)[C@H]([C@@H](C)O)NC(=O)[C@H](CCN)NC(=O)[C@H](CCN)NC1=O [PMBN, Polymyxin B nonapeptide, reference compound] (H-T[Dab][Dab][Dab][dF]L[Dab][Dab]T; lactam 3-C (inferred); N-terminus assumed)",MIC PMBN alone,[1]; ATCC 19606,>128^(a) μg/ml
same,MIC PMBN alone,[2]; ATCC 27853,>128^(a) μg/ml
same,survival at the end of 5 days,E. coli (NDM-1; CTX-M15),No mice survived
same,MIC PMBN alone,[3]; (a) No measurable antibacterial activity,>32^(a) μg/ml
same,MIC PMBN alone,E. coli (ATCC 25922) [4]; ATCC 25922,>128^(a) μg/ml
same,MIC PMBN alone,E. cloaceae (ATCC 13047) [5]; ATCC 13047,>128^(a) μg/ml
"CCNC(=O)Nc1nc2cc(-c3cnc([C@H](C)O)nc3)cc(-c3ccccn3)c2s1 [Example 23 (WO2013/138860), 1-ethyl-3-[5-[2-[(1S)-1-hydroxyethyl]pyrimidin-5-yl]-7-(2-pyridyl)-1,3-benzothiazol-2-yl]urea]",MIC,E. cloaceae (ATCC 13047) [6],> 64 µg/mL
same,MIC of Compound (μg/ml) in the presence of PMBN (128 μg/ml),[7]; E. coli (MMX 1312),≦0.008 μg/ml
same,MIC of Compound (μg/ml) in the presence of PMBN (128 μg/ml),[7]; E. coli (MMX 2232),≦0.008 μg/ml
same,MIC,[7]; E. coli (MMX 1312),> 64 µg/mL
same,MIC,[7]; E. coli (MMX 2232),> 64 µg/mL
same,MIC of Compound (μg/ml) in the presence of PMBN (128 μg/ml),[8]; A. baumannii (MMX 4454),0.5 µg/mL
same,MIC of Compound (μg/ml) in the presence of PMBN (128 μg/ml),[8]; A. baumannii (MMX 6331),0.25 µg/mL
same,MIC,[8]; A. baumannii (MMX 4454),2 µg/mL
same,MIC,[8]; A. baumannii (MMX 6331),> 64 µg/mL
same,MIC of Compound (μg/ml) in the presence of PMBN (128 μg/ml),[1]; Table 4,0.25 µg/mL
same,MIC of Compound (μg/ml) in the presence of PMBN (128 μg/ml),[2]; Table 5,<=0.008 μg/ml
same,MIC of Compound (μg/ml) in the presence of PMBN (128 μg/ml),[9]; E. cloaceae (MMX 6087),2 µg/mL
same,MIC,[9]; E. cloaceae (MMX 6087),> 64 µg/mL
same,MIC of Compound (μg/ml) in the presence of PMBN (128 μg/ml),[9]; E. cloaceae (MMX 6093),0.5 µg/mL
same,MIC,[9]; E. cloaceae (MMX 6093),> 16 µg/mL
same,MIC of Compound (μg/ml) in the presence of PMBN (128 μg/ml),[9]; E. cloaceae (MMX 6095),8 µg/mL
same,MIC,[9]; E. cloaceae (MMX 6095),> 64 µg/mL
same,MIC of Compound (μg/ml) in the presence of PMBN (128 μg/ml),[9]; E. cloaceae (MMX 6304),1 µg/mL
same,MIC,[9]; E. cloaceae (MMX 6304),> 16 µg/mL
same,MIC of Compound (μg/ml) in the presence of colistin (2 μg/ml),[10],4 µg/mL
same,MIC,"[10]; Pseudomonas aeruginosa, read-out: MIC Compound alone",> 64 µg/mL
same,MIC,[11],> 64 µg/mL
same,MIC of Compound (μg/ml) in the presence of colistin (2 μg/ml),[12]; E. coli colistin-resistant strain #1,2 µg/mL
same,MIC of Compound (μg/ml) in the presence of colistin (2 μg/ml),[12]; E. coli colistin-resistant strain #2,1 µg/mL
same,MIC of Compound (μg/ml) in the presence of colistin (2 μg/ml),[12]; E. coli colistin-resistant strain #3,1 µg/mL
same,MIC of Compound (μg/ml) in the presence of colistin (2 μg/ml),[12]; E. coli colistin-resistant strain #26,1 µg/mL
same,MIC of Compound (μg/ml) in the presence of colistin (2 μg/ml),[12]; E. coli colistin-resistant strain #43,1 µg/mL
same,MIC,"[12]; read-out: MIC Compound alone, E. coli colistin-resistant strain #1",4 µg/mL
same,MIC,"[12]; read-out: MIC Compound alone, E. coli colistin-resistant strain #2",4 µg/mL
same,MIC,"[12]; read-out: MIC Compound alone, E. coli colistin-resistant strain #3",8 µg/mL
same,MIC,"[12]; read-out: MIC Compound alone, E. coli colistin-resistant strain #26",8 µg/mL
same,MIC,"[12]; read-out: MIC Compound alone, E. coli colistin-resistant strain #43",4 µg/mL
same,MIC,[13],4 µg/mL
same,MIC of Compound (μg/ml) in the presence of PMBN (32 μg/ml),[3],2 µg/mL
same,MIC of Compound (μg/ml) in the presence of PMBN (128 μg/ml),"E. coli (ATCC 25922) [4]; Table 1, (b) No effect",0.06 µg/mL
same,MIC of Compound (μg/ml) in the presence of Colistin (1 μg/ml),"E. coli (ATCC 25922) [4]; Table 2, colistin sub-inhibitory",1 µg/mL
same,MIC of Compound (μg/ml) in the presence of PMB (0.5 μg/ml),"E. coli (ATCC 25922) [4]; Table 3, PMB sub-inhibitory",1 µg/mL
same,MIC of Compound (μg/ml) in the presence of PMBN (32 μg/ml),"E. coli (ATCC 25922) [4]; Table 12, (b) No significant effect",0.12 µg/mL
same,MIC,"B. cepacia (ATCC 25416); Burkholderia cepacia, ATCC25416, read-out: MIC Compound alone",> 64 µg/mL
same,MIC of Compound (μg/ml) in the presence of colistin (2 μg/ml),"B. cepacia (ATCC 25416); Table 8, colistin non-inhibitory",8 µg/mL
same,MIC,"E. coli (ATCC 25922) [14]; ATCC25922, read-out: MIC Compound alone, Table 1",4 µg/mL
same,MIC,"E. coli (ATCC 25922) [14]; ATCC25922, read-out: MIC Compound alone, Table 2",4 µg/mL
same,MIC,"E. coli (ATCC 25922) [14]; ATCC25922, read-out: MIC Compound alone, Table 3",4 µg/mL
same,MIC,"E. coli (ATCC 25922) [14]; ATCC25922, read-out: MIC Compound alone, Table 12",> 2 µg/mL
same,MIC,[15],> 16 µg/mL
same,MIC of Compound (μg/ml) in the presence of colistin (2 μg/ml),[16]; K. pneumonia colistin-resistant strain #1,0.25 µg/mL
same,MIC of Compound (μg/ml) in the presence of colistin (2 μg/ml),[16]; K. pneumonia colistin-resistant strain #2,0.25 µg/mL
same,MIC of Compound (μg/ml) in the presence of colistin (2 μg/ml),[16]; K. pneumonia colistin-resistant strain #3,0.12 µg/mL
same,MIC,"[16]; read-out: MIC Compound alone, K. pneumonia colistin-resistant strain #1",1 µg/mL
same,MIC,"[16]; read-out: MIC Compound alone, K. pneumonia colistin-resistant strain #2",1 µg/mL
same,MIC,"[16]; read-out: MIC Compound alone, K. pneumonia colistin-resistant strain #3",2 µg/mL
same,MIC of Compound (μg/ml) in the presence of colistin (2 μg/ml),[17]; A. baumannii colistin-resistant strain #1,0.015 µg/mL
same,MIC of Compound (μg/ml) in the presence of colistin (2 μg/ml),[17]; A. baumannii colistin-resistant strain #2,0.03 µg/mL
same,MIC of Compound (μg/ml) in the presence of colistin (2 μg/ml),[17]; A. baumannii colistin-resistant strain #3,<=0.008 μg/ml
same,MIC,"[17]; read-out: MIC Compound alone, A. baumannii colistin-resistant strain #1",≤ 0.03 µg/mL
same,MIC,"[17]; read-out: MIC Compound alone, A. baumannii colistin-resistant strain #2",4 µg/mL
same,MIC,"[17]; read-out: MIC Compound alone, A. baumannii colistin-resistant strain #3",≤ 0.03 µg/mL
same,MIC of Compound (μg/ml) in the presence of PMBN (128 μg/ml),E. cloaceae (ATCC 13047) [5]; Table 6,0.5 µg/mL
same,MIC Compound alone,E. cloaceae (ATCC 13047) [5]; Table 7,>64 µg/mL
same,MIC of Compound (μg/ml) in the presence of colistin (2 μg/ml),"E. cloaceae (ATCC 13047) [5]; Table 7, colistin non-inhibitory",<=0.12 μg/ml
same,MIC of Compound (μg/ml) in the presence of PMBN (128 μg/ml),[18]; P. aeruginosa (MMX3007),0.25 µg/mL
same,MIC of Compound (μg/ml) in the presence of PMBN (128 μg/ml),[18]; P. aeruginosa (MMX3022),0.25 µg/mL
same,MIC of Compound (μg/ml) in the presence of PMBN (128 μg/ml),[18]; P. aeruginosa (MMX3025),0.12 µg/mL
same,MIC of Compound (μg/ml) in the presence of PMBN (128 μg/ml),[18]; P. aeruginosa (NCTC13437),0.25 µg/mL
same,MIC,"[18]; NCTC13437, P. aeruginosa (NCTC13437)",> 64 µg/mL
same,MIC,[18]; P. aeruginosa (MMX3007),> 64 µg/mL
same,MIC,[18]; P. aeruginosa (MMX3022),> 64 µg/mL
same,MIC,[18]; P. aeruginosa (MMX3025),> 64 µg/mL
